Results: the supplement of paper PMC11208160

Assay: recombinant UMI read abundance after kanamycin selection (control-corrected) (log10(CPM+1)); higher = more efficient recombination; extreme values may be limits of the assay; sequences stand for … in AGTGCAGAGAAAATCGGCCAGTTTTCTCTGCCTGCAGTCCGCATGCCGTGGGACCCCTTGGGTTCTAACCTGTTGCCTAGATTTATGCAGCGGACTGCCTTTCTCCCAAAGTGATAAACCGG…AGGTTGGTTTCACT; site = the 11-nt donor
Method in brief: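 In Escherichia coli, a pool of donor and donor-binding-loop pairs, each with a 12-nt UMI, was tested for the IS621 bridge recombinase. Plating was on IPTG (0.07 mM) plus kanamycin, or without selection, in two replicates. Recombinant UMIs were amplified by PCR across the donor–target junction and sequenced, and counts were reported as log10(CPM+1) after averaging and control-derived scaling.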
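Note: IS621 bridge recombinase in Escherichia coli cells against a fixed T5 target plasmid.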

“GACAAACCATGGACCGGTTTTCCCGGTAATCCGTATTTGTT (site GACAAACCTAC)” and “AAAACACCATGGACCGGTTTTCCCGGTAATCCGTATTTGCG (site AAAACACCTCG)” are within 0.2 log units of each other in “recombinant UMI read abundance (log10)” value: 0 for the first, 0.012 for the second.

Compared with “CACGTCACATGGACCGGTTTTCCCGGTAATCCGTATTTGGG (site CACGTCACTCC)”, “GTGTTTCCATGGACCGGTTTTCCCGGTAATCCGTATTTGTG (site GTGTTTCCTCA)” is higher in “recombinant UMI read abundance (log10)” value: 0.0104 for the first, 0.368 for the second.

“AACGGTCCATGGACCGGTTTTCCCGGTAATCCGTATTTGAT (site AACAGTCCTAT)” and “ATCTATACATGGACCGGTTTTCCCGGTAATCCGTATTTGAC (site ATCTATACTAT)” are within 0.2 log units of each other in “recombinant UMI read abundance (log10)” value: 0.00739 for the first, 0.00827 for the second.

Going from “CGCAATGCATGGACCGGTTTTCCCGGTAATCCGTATTTGTT (site CGCAATGCTAA)” to “CAATTCTCATGGACCGGTTTTCCCGGTAATCCGTATTTGAA (site CAATTCTCTTT)”, the “recombinant UMI read abundance (log10)” value rises from 2.14 to 2.5.

First: CTGGAAACATGGACCGGTTTTCCCGGTAATCCGTATTTGAA (site CTGGAAACTTT)
Second: ATTAGAACATGGACCGGTTTTCCCGGTAATCCGTATTTGAG (site AGTAGAACTCT)
The “recombinant UMI read abundance (log10)” value of the first is higher: 2.09 for the first, 0.286 for the second.

“CGAGCAGCATGGACCGGTTTTCCCGGTAATCCGTATTTGCT (site CGATCATCTAG)” and “GCGGCCCCATGGACCGGTTTTCCCGGTAATCCGTATTTGAT (site GCGGCCCCTAT)” are within 0.2 log units of each other in “recombinant UMI read abundance (log10)” value: 0 for the first, 0.00951 for the second.

Going from “AAGCACGCATGGACCGGTTTTCCCGGTAATCCGTATTTGGC (site AAGCACGCTAC)” to “ACTGGGACATGGACCGGTTTTCCCGGTAATCCGTATTTGAG (site ACTGGGACTCT)”, the “recombinant UMI read abundance (log10)” value rises from 0.701 to 1.39.

Compared with “GTAAGATCATGGACCGGTTTTCCCGGTAATCCGTATTTGGC (site GTAAGATCTGC)”, “CGGGACTCATGGACCGGTTTTCCCGGTAATCCGTATTTGCC (site CGGGATTCTGG)” is lower in “recombinant UMI read abundance (log10)” value: 2.74 for the first, 1.77 for the second.

Compared with “GCGAACGCATGGACCGGTTTTCCCGGTAATCCGTATTTGCT (site GCGAACGCTAG)”, “TCCGGTCCATGGACCGGTTTTCCCGGTAATCCGTATTTGCA (site GCCGGTCCTTG)” is lower in “recombinant UMI read abundance (log10)” value: 2.26 for the first, 0 for the second.

First: CGTGGAACATGGACCGGTTTTCCCGGTAATCCGTATTTGAT (site CGTGGAACTAG)
Second: TGAAGAGCATGGACCGGTTTTCCCGGTAATCCGTATTTGCC (site TGAAGAGCTGG)
The “recombinant UMI read abundance (log10)” value of the first is lower: 0 for the first, 1.62 for the second.

Compared with “TCGCCTTCATGGACCGGTTTTCCCGGTAATCCGTATTTGGT (site TAGCCTTCTAC)”, “CGAATTCCATGGACCGGTTTTCCCGGTAATCCGTATTTGCG (site CGAATTCCTCG)” is higher in “recombinant UMI read abundance (log10)” value: 0.0118 for the first, 0.935 for the second.

Going from “CAATCCTCATGGACCGGTTTTCCCGGTAATCCGTATTTGAA (site CAATTCTCTTT)” to “GACGCCGCATGGACCGGTTTTCCCGGTAATCCGTATTTGGT (site GACGCCGCTAC)”, the “recombinant UMI read abundance (log10)” value rises from 0 to 0.736.

“TACTTGACATGGACCGGTTTTCCCGGTAATCCGTATTTGCT (site GACTTGACTAG)” and “TGTTCCTCATGGACCGGTTTTCCCGGTAATCCGTATTTGTA (site TGTTCCGCTTA)” are within 0.2 log units of each other in “recombinant UMI read abundance (log10)” value: 0.00311 for the first, 0 for the second.

Compared with “ACTCAAGCATGGACCGGTTTTCCCGGTAATCCGTATTTGTT (site ACTCAAGCTAA)”, “GCTACCCCATGGACCGGTTTTCCCGGTAATCCGTATTTGGA (site GCTACCCCTTC)” is lower in “recombinant UMI read abundance (log10)” value: 1.72 for the first, 0.0342 for the second.

First: CGTTATACATGGACCGGTTTTCCCGGTAATCCGTATTTGAG (site CGTTATACTCT)
Second: CGTGGAACATGGACCGGTTTTCCCGGTAATCCGTATTTGTT (site CGTGGCACTAA)
The “recombinant UMI read abundance (log10)” value of the first is higher: 1.25 for the first, 0.0304 for the second.

Going from “GAAGGTACATGGACCGGTTTTCCCGGTAATCCGTATTTGAC (site GAAGGTACTGT)” to “CTAGGACCATGGACCGGTTTTCCCGGTAATCCGTATTTGAC (site CTAGGACCTGT)”, the “recombinant UMI read abundance (log10)” value falls from 2.28 to 0.

Going from “TAGCCATCATGGACCGGTTTTCCCGGTAATCCGTATTTGGT (site TAGCCGTCTAC)” to “CAATCCTCATGGACCGGTTTTCCCGGTAATCCGTATTTGAA (site CAATACTCTTT)”, the “recombinant UMI read abundance (log10)” value rises from 0.0186 to 1.33.

Compared with “GGTACTCCATGGACCGGTTTTCCCGGTAATCCGTATTTGTA (site GGTACTCCTTA)”, “GTTGTTCCATGGACCGGTTTTCCCGGTAATCCGTATTTGGT (site GGTGTTCCTAC)” is lower in “recombinant UMI read abundance (log10)” value: 0.301 for the first, 0.0704 for the second.

First: TGAGGCTCATGGACCGGTTTTCCCGGTAATCCGTATTTGGT (site TGAGGCTCTAC)
Second: CGAGGGCCATGGACCGGTTTTCCCGGTAATCCGTATTTGGG (site CGAGGTCCTCC)
The “recombinant UMI read abundance (log10)” value of the first is higher: 1.76 for the first, 0.0269 for the second.
